The target in one data set is Carbonic anhydrase 9 (Homo sapiens, UniProt Q16790). The data set is classed as cell-based, Sf9.
Data set [1] can be described thus: Solubility in water. The data set is classed as physicochemical. The settings on record: buffer.
The next data set has as its target Carbonic anhydrase 12 (Homo sapiens, UniProt O43570). The data set can be described thus: Inhibition of human recombinant CA12 catalytic domain expressed in Sf9 cells by stopped flow CO2 hydration assay.

13 compounds from ChEMBL document CHEMBL1152620, “Carbonic anhydrase inhibitors. Diazenylbenzenesulfonamides are potent and selective inhibitors of the tumor-associated isozymes IX and XII over the cytosolic isoforms I and II” (Bioorg Med Chem, 2009) can be followed below.

Molecules are shown by their SMILES.

Sequence of Carbonic anhydrase 12 (O43570 whole entry, the tested form may be a part): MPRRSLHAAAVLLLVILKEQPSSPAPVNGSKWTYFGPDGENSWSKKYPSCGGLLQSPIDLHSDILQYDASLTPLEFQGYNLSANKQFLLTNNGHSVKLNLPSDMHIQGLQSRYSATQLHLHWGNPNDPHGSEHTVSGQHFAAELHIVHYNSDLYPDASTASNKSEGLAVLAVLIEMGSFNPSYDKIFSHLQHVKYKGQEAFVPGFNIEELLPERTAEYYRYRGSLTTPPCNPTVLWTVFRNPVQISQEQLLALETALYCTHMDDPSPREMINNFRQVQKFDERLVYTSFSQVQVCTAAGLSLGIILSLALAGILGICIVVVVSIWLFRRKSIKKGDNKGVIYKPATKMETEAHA
Description for Carbonic anhydrase 9: Inhibition of human recombinant CA9 catalytic domain expressed in Sf9 cells by stopped flow CO2 hydration assay

As a reminder, the Ki is the dissociation constant of the complex between target and ligand, obtained from inhibition or displacement. `Nc1ccc(/N=N/c2ccc(S(N)(=O)=O)cc2)cc1` came in with a Ki at Carbonic anhydrase 9 of 6 nM.
In the case of `NS(=O)(=O)c1ccc(/N=N/c2ccc(NCS(=O)(=O)[O-])cc2)cc1.[Na+]`, the solubility entry in data set [1] is listed as “Soluble”. This compound had a Ki at Carbonic anhydrase 9 of 5.4 nM.
For the compound `CN(C)c1ccc(/N=N/c2ccc(S(N)(=O)=O)cc2)cc1`, the Ki at Carbonic anhydrase 12 turned out to be 7.9 nM.
In the case of `NS(=O)(=O)c1ccc(/N=N/c2ccc(O)cc2)cc1`, the Ki at Carbonic anhydrase 12 is 5 nM; on Carbonic anhydrase 9, 6.4 nM.
Turning to `CN(CS(=O)(=O)O)c1ccc(/N=N/c2cccc(S(N)(=O)=O)c2)cc1`, the Ki on Carbonic anhydrase 9 stood at 63 nM.
As for `CN(CS(=O)(=O)[O-])c1ccc(/N=N/c2ccc(S(N)(=O)=O)cc2)cc1.[Na+]`, in data set [1], the solubility entry is on record as “Soluble”. This compound also yielded an inhibitory constant (Ki) at Carbonic anhydrase 9 of 3.5 nM.
In the case of `NS(=O)(=O)c1cccc(/N=N/c2ccc(NCS(=O)(=O)O)cc2)c1`, the Ki on Carbonic anhydrase 9 is 57 nM.
On to `Nc1ccc(/N=N/c2cccc(S(N)(=O)=O)c2)cc1`, for which the Ki at Carbonic anhydrase 9 worked out at 5.9 nM.
Consider `CNc1ccc(/N=N/c2ccc(S(N)(=O)=O)cc2)cc1`, for which the Ki at Carbonic anhydrase 12 is 69.4 nM; on Carbonic anhydrase 9, 4.9 nM.
As for `NS(=O)(=O)c1cccc(/N=N/c2ccc(O)cc2)c1`, the figures for the Ki on Carbonic anhydrase 12 and on Carbonic anhydrase 9 were 7.3 nM and 6.1 nM, respectively.
For `CN(C)c1ccc(/N=N/c2cccc(S(N)(=O)=O)c2)cc1`, the Ki on Carbonic anhydrase 9 was 6.4 nM.
For the compound `O=S(=O)(O)CNc1ccccc1` [SODIUM PHENYLAMINOMETHANESULFONATE], the Ki at Carbonic anhydrase 9 was 5100 nM.
For the compound `CN(CS(=O)(=O)O)c1ccccc1` [SODIUM(METHYL(PHENYL)AMINO)METHANESULFONATE], on Carbonic anhydrase 9, the Ki came to 5850 nM.
